For series [1] the following is noted: toluene.
The next series relates to HSP90. As to the kind of experiment: HSP90 affinity in a competition assay with geldanamycin. The series is classed as binding.
For series [2] the following is noted: rcm bond, 14-membered ring, Grubbs II (10 mol%), toluene, 2.0 mM, 80.0 °C.
The test system of series [3] is c-Raf. Nature of the series: Western blot of c-Raf in NF2-deficient cells. Type of series: cell-based, mouse and human. The settings on record: NF2-deficient cells (Nf2-/- mouse Schwann, meningioma, mesothelioma); dose- and time-dependent. From the text:
(§1) It has been shown that inhibition of HSP90 function in breast cancer cells causes down-regulation of Akt (Basso et al., 2002, J. Biol. Chem. 277(42): 39858-39866). The inventors of the present invention have determined that phospho-Akt levels are elevated in Nf1−/− mouse Schwann cells, NF2 defient human schwannomas, NF2-deficient meningioma xenografts, NF2-deficient mesothelioma xenografts as compared to wild-type mouse Schwann cells and/or normal human peripheral nerves (reference is made to PCT/US2007/70366 application entitled “Treatment of Neurofibromatosis with Inhibitors of a Signal Transduction Pathway,” filed on Jun. 4, 2007, which is herein incorporated by reference in its entirety). To assess the effect of HSP90 inhibitors on phospho-Akt in NF2 deficient cells, Western blots were prepared from Nf2−/− mouse Schwann cells as an example. The cells were treated with 0.02 μM, 0.5 μM NXD30001 for 24 hours. […]
(§2) To assess the effect of the compounds of the present invention on ErbB2 and c-Raf in NF2-deficient cells, Western blots were prepared from various NF2-deficient cells, including Nf2−/− mouse Schwann cells, NF2-deficient meningioma cells, and NF2-deficient mesothelioma cells. […] The inventors of the present invention have determined that treatment of NF2-deficient cells with NXD30001 caused a decline of both ErbB2 and c-Raf levels (FIG. 1A). […]

The subject of series [4] is NF1- and NF2-deficient human and mouse cells. As to the kind of experiment: Cell proliferation assay (ATPlite). The series is classed as cell-based. The settings on record: 3 days culture; IC50 values only in FIG. 3. The method, then:
Inhibitors of HSP90 function is assayed for the ability to decrease the number of NF2 deficient tumor cells in a tumor, i.e., shrink a tumor, or reduce the proliferation of NF2 deficient tumor cells. The ability of inhibitors to decrease the number of NF2 deficient tumor cells in a sample or reduce proliferation of NF2 deficient tumor cells is assessed using a variety of methods known in the art. A small library of compounds of the present invention (total 14 oxime compounds) were assayed for inhibition of proliferation of NF1- and NF2-deficient cells. Cells used are Nf2−/− mouse embryonic stem cell (MESC), NF2-deficient human SF1335 meningioma cells, NF2-deficient HEI193 schwanoma cells, NF2-deficient BAR and RAV mesothelioma cells, NF2-plus BLA mesothelioma cells, and NF1-deficient human malignant peripheral nerve sheath tumor (MPNST) cells. Appropriate number of cells that can reach ˜70% confluence in 3 days (2000-6000 cells/well) were plated in 96-well plates. Various concentrations of each compound were added to the growing media and the cells were then cultured for 3 days. A positive control compound (17-AAG) and a vehicle (DMSO) control were included with each assay. […] Viable cells were measured by detecting luminescence generated from reaction of ATPlite solution and the ATP in the cells.
(ATP-based viability assays read luminescence as a measure of living cells.)

In a further series the test system is ErbB2. Nature of the series: Western blot of ErbB2 in NF2-deficient cells. The series is classed as cell-based, mouse and human. Particulars: NF2-deficient cells (Nf2-/- mouse Schwann, meningioma, mesothelioma); dose- and time-dependent.
Source text: as §1, §2

Another series has as its system phospho-Akt. As to the kind of experiment: Western blot of phospho-Akt in Nf2-/- mouse Schwann cells. Type of series: cell-based. Particulars: 0.02 μM, 0.5 μM, 24 hours, dose- and time-dependent. The text has this:
(§3) It has been shown that inhibition of HSP90 function in breast cancer cells causes down-regulation of Akt (Basso et al., 2002, J. Biol. Chem. 277(42): 39858-39866). The inventors of the present invention have determined that phospho-Akt levels are elevated in Nf1−/− mouse Schwann cells, NF2 defient human schwannomas, NF2-deficient meningioma xenografts, NF2-deficient mesothelioma xenografts as compared to wild-type mouse Schwann cells and/or normal human peripheral nerves (reference is made to PCT/US2007/70366 application entitled “Treatment of Neurofibromatosis with Inhibitors of a Signal Transduction Pathway,” filed on Jun. 4, 2007, which is herein incorporated by reference in its entirety). To assess the effect of HSP90 inhibitors on phospho-Akt in NF2 deficient cells, Western blots were prepared from Nf2−/− mouse Schwann cells as an example. The cells were treated with 0.02 μM, 0.5 μM NXD30001 for 24 hours. As control the same cells were treated with vehicle DMSO for 24 hours. […] The loss of phospho-Akt was both dose- and time-dependent.

The test system of a further series is HSP70. Nature of the series: Western blot of HSP70 in NF2-deficient cells. Type of series: cell-based, mouse and human. Particulars: dose-dependent.
Source text: as §3
To assess the effect of the compounds of the present invention on HSP70 in NF2-deficient cells, Western blots were prepared from various NF2-deficient cells, including […], NF2-deficient schwannoma cells, NF2-deficient meningioma cells, and NF2-deficient mesothelioma cells. […]
A general note: In western blotting, separated proteins are transferred to a membrane and probed.

The test system of the next series is Cdk4. As to the kind of experiment: Immunoblot of client protein degradation in ST88-14 MPNST cells. Type of series: cell-based, human. Particulars: ST88-14 cells, 24 hr treatment, 8-1000 nM; read-out: IC50 of induced degradation of Cdk4. On the procedure: (§4) Ras-Raf-Mek-Erk1/2 pathway is activated due to the loss of NF1 in these cells. In addition, EGFR is overexpressed in a number of NF1-deficient human and mouse cells. Human malignant peripheral nerve sheath tumor (MPNST) cell ST88-14 was treated with increasing concentration (8-1000 nM) of NXD30001 for 24 hr. Cells were lysed and clarified lysates were subjected SDS-PAGE, followed by immunoblot analysis using indicated antibodies. […] Equal lysate protein loading is shown by actin immunoblot.

The next series concerns Akt. The description is as above. The series is classed as cell-based, human. Particulars: ST88-14 cells, 24 hr treatment, 8-1000 nM; read-out: IC50 of induced degradation of Akt. On the procedure:
as §4

The subject of a further series is EGFR. The series is described as above. The series is classed as cell-based, human. Particulars: ST88-14 cells, 24 hr treatment, 8-1000 nM; read-out: IC50 of induced degradation of EGFR. On the procedure: as §4
In series [5] the test system is c-Raf. Described as above. The settings on record: ST88-14 cells, 24 hr treatment, 8-1000 nM; read-out: IC50 of induced degradation of c-Raf. The series is classed as cell-based, human. On the procedure:
as §4

The conditions of series [6]: cited from earlier work.

These results are taken from patent US8329683B2 (Nexgenix Pharmaceuticals, LLC, priority 2006, dated 2012).

Read-outs that look alike come from different tables or passages of the source.

`CCOCOc1cc2c(c(OCOCC)c1)C(=O)O[C@H](C)CC=CCCC=CC(=O)C2`: in series [1] (from C=CCCC=CC(=O)Cc1cc(OCOCC)cc(OCOCC)c1C(=O)O[C@H](C)CC=C, rcm bond, Grubbs II, 2.0 mM, 80.0 °C, 2 steps), the ring closure, yield of all isomers is 40%.
In series [1] (from C=CCCC=CC(=O)Cc1c(Cl)c(OCOCC)cc(OCOCC)c1C(=O)O[C@H](C)CC=C, rcm bond, Grubbs II, 2.0 mM, 80.0 °C), `CCOCOc1cc(OCOCC)c2c(c1Cl)CC(=O)C=CCCC=CC[C@@H](C)OC2=O` returned a ring closure, yield of all isomers of 94%.
`C[C@@H]1CC=CCC/C=C/C(=O)Cc2c(Cl)c(OCOCC[Si](C)(C)C)cc(OCOCC[Si](C)(C)C)c2C(=O)O1` came in with a ring closure, yield of all isomers in series [1] (from C=CCC/C=C/C(=O)Cc1c(Cl)c(OCOCC[Si](C)(C)C)cc(OCOCC[Si](C)(C)C)c1C(=O)O[C@H](C)CC=C, rcm bond, Grubbs II, 2.0 mM, 80.0 °C, 12.0 h) of 87%.
The term IC50 denotes the point on the concentration scale where inhibition reaches its midpoint. `C[C@@H]1C/C=C/CC/C=C/C(=O)Cc2c(Cl)c(O)cc(O)c2C(=O)O1` [pochonin D] registered an IC50 in the series with HSP90 of 80 nM.
In the case of `C[C@@H]1CC=CCC/C=C/C(=O)Cc2c(Cl)c(O[Si](C)(C)C(C)(C)C)cc(O[Si](C)(C)C(C)(C)C)c2C(=O)O1`, in series [1] (from C=CCC/C=C/C(=O)Cc1c(Cl)c(O[Si](C)(C)C(C)(C)C)cc(O[Si](C)(C)C(C)(C)C)c1C(=O)O[C@H](C)CC=C, rcm bond, Grubbs II, 2.0 mM, 80.0 °C, 12.0 h), the ring closure, yield of all isomers was determined as 87%.
The compound `CCOCOc1cc(OCOCC)c2c(c1Cl)CC(=O)C=CCCC=CCC(C)OC2=O` (stereo not shown) came in with a ring closure, isolated yield in series [2] of 94%.
With `O=C1OCC/C=C/CC/C=C/C(=N/OCC(=O)N2CCCCC2)Cc2c(Cl)c(O)cc(O)c21` [NXD30001], the c-Raf levels entry with c-Raf [3] is recorded as “decline”. Moreover, the “inhibition of cell proliferation” value in [4] is given as “Inhibit Proliferation”. Also, the ErbB2 levels entry with ErbB2 was “decline”. Besides, the phospho-Akt levels result in the series on phospho-Akt was “decline of phospho-Akt levels”. Moreover, the HSP70 protein level result in the series with HSP70 is recorded as “upregulation of HSP70”. In addition, the IC50 in the series on Cdk4, in the series with Akt, in the series on EGFR and in the series on c-Raf [5] was ~100 nM in each case.
With `C[C@@H]1C[C@H]2O[C@@H]2/C=C\C=C\C(=O)Cc2c(Cl)c(O)cc(O)c2C(=O)O1` [radicicol, Radicicol, reference compound], the “in vivo anti-tumor activity” value in series [6] was “no in vivo anti-tumor activity”.
In series [2] (2 steps), `CCOCOc1cc2c(c(OCOCC)c1)C(=O)OC(C)CC=CCCC=CC(=O)C2` (stereo not shown) returned a ring closure, isolated yield of 40%.
Regarding `C[C@@H]1CC2O[C@@H]2CC/C=C/C(=O)Cc2c(Cl)c(O)cc(O)c2C(=O)O1` (stereo partly shown) [pochonin A], the IC50 in the series on HSP90 came to 90 nM.
In series [1] (from CCOCOc1cc(OCOCC)c(C(=O)O)c(CC(C=CCCC=CCCO)=NOCC(=O)N2CCCCC2)c1Cl, ester bond, PPh3/DIAD, 30.9 mM, 23.0 °C, 5.0 h), `CCOCOc1cc(OCOCC)c2c(c1Cl)CC(=NOCC(=O)N1CCCCC1)C=CCCC=CCCOC2=O` gave a ring closure, yield of all isomers of 60%.
